Consider three compounds from patent publication US20210032253A1, “PYRAZOLO[1,5-A][1,3,5]TRIAZINE-2-AMINE DERIVATIVE, PREPARATION METHOD THEREFOR AND MEDICAL USE THEREOF” (JIANGSU HENGRUI MEDICINE CO., LTD., priority 2018, published 2021).

This test deals with T1, adenosine A3 receptor (A3R) (Homo sapiens, UniProt P0DMS8).
T1 construct: expressed in transfected cells; host or cells: CHO-K1
T1 sequence (P0DMS8 1-318): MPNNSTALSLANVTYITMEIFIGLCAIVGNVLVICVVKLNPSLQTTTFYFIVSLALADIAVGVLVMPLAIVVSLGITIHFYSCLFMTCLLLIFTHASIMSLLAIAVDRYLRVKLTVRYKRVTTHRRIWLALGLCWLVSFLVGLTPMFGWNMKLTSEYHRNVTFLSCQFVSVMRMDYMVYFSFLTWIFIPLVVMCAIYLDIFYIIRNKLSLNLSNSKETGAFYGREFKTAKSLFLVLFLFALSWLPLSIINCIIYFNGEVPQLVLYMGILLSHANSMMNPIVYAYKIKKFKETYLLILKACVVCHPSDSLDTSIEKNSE
Kind of test: Inhibition of adenosine A3 receptor cAMP signaling pathway in CHO-K1/A3R cells (HTRF cAMP dynamic 2 kit). It counts as cell-based. To be noted: Table 3; for IC50: CHO-K1/A3R cells, cAMP, 10 μM forskolin, 5 nM 2Cl-IB-MECA; for IC50 ratio (A3R/A2aR): selectivity A3R over A2aR. The essentials:
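CHO-K1 cells expressing A3R, in HBSS/HEPES/BSA with rolipram and adenosine deaminase, were preincubated 30 min with compound (0.1–100000 nM final). They were then stimulated 30 min with 10 μM forskolin plus 5 nM 2Cl-IB-MECA at room temperature. cAMP read by HTRF and IC50 calculated.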

For the compound `Cc1ccc(-c2nc(N)nc3c(Cc4cccc(CO[C@H]5CCOC5)n4)cnn23)o1` [Example 1, (S)-4-(5-Methylfuran-2-yl)-8-((6-(((tetrahydrofuran-3-yl)oxy)methyl)pyridin-2-yl)methyl)pyrazolo[1,5-a][1,3,5]triazin-2-amine], the IC50 stood at 2060 nM and the “IC50 ratio (A3R/A2aR)” value was >10^3.
In the same order, the values of `Cc1ccc(-c2nc(N)nc3c(Oc4cccc(CO[C@H]5CCOC5)n4)cnn23)o1` [Example 19, (S)-4-(5-Methylfuran-2-yl)-8-((6-(((tetrahydrofuran-3-yl)oxy)methyl)pyridin-2-yl)oxy)pyrazolo[1,5-a][1,3,5]triazin-2-amine] are 4790 nM and >10^3.
In the same order, the values of `Cc1ccc(-c2nc(N)nc3c(Nc4cccc(CO[C@H]5CCOC5)n4)cnn23)o1` [Example 18, (S)-4-(5-Methylfuran-2-yl)-N^8-(6-(((tetrahydrofuran-3-yl)oxy)methyl)pyridin-2-yl)pyrazolo[1,5-a][1,3,5]triazine-2,8-diamine] are 2200 nM and >10^3.
